One may read the IC50 as the concentration needed to halve the response being measured.

Data on 24 compounds can be found in patent US20100204224A1, “AZACYCLIC COMPOUNDS AS INHIBITORS OF SENSORY NEURONE SPECIFIC SODIUM CHANNELS” (priority 2005, published 2010).

Where a name gives a salt, the structure may show the parent alone.

The target in the first assay is T1, human Nav1.8 (hNav1.8) ion channel (Homo sapiens, UniProt Q9Y5Y9).
T1 construct: expressed in transfected cells
T1 sequence (Q9Y5Y9 whole entry): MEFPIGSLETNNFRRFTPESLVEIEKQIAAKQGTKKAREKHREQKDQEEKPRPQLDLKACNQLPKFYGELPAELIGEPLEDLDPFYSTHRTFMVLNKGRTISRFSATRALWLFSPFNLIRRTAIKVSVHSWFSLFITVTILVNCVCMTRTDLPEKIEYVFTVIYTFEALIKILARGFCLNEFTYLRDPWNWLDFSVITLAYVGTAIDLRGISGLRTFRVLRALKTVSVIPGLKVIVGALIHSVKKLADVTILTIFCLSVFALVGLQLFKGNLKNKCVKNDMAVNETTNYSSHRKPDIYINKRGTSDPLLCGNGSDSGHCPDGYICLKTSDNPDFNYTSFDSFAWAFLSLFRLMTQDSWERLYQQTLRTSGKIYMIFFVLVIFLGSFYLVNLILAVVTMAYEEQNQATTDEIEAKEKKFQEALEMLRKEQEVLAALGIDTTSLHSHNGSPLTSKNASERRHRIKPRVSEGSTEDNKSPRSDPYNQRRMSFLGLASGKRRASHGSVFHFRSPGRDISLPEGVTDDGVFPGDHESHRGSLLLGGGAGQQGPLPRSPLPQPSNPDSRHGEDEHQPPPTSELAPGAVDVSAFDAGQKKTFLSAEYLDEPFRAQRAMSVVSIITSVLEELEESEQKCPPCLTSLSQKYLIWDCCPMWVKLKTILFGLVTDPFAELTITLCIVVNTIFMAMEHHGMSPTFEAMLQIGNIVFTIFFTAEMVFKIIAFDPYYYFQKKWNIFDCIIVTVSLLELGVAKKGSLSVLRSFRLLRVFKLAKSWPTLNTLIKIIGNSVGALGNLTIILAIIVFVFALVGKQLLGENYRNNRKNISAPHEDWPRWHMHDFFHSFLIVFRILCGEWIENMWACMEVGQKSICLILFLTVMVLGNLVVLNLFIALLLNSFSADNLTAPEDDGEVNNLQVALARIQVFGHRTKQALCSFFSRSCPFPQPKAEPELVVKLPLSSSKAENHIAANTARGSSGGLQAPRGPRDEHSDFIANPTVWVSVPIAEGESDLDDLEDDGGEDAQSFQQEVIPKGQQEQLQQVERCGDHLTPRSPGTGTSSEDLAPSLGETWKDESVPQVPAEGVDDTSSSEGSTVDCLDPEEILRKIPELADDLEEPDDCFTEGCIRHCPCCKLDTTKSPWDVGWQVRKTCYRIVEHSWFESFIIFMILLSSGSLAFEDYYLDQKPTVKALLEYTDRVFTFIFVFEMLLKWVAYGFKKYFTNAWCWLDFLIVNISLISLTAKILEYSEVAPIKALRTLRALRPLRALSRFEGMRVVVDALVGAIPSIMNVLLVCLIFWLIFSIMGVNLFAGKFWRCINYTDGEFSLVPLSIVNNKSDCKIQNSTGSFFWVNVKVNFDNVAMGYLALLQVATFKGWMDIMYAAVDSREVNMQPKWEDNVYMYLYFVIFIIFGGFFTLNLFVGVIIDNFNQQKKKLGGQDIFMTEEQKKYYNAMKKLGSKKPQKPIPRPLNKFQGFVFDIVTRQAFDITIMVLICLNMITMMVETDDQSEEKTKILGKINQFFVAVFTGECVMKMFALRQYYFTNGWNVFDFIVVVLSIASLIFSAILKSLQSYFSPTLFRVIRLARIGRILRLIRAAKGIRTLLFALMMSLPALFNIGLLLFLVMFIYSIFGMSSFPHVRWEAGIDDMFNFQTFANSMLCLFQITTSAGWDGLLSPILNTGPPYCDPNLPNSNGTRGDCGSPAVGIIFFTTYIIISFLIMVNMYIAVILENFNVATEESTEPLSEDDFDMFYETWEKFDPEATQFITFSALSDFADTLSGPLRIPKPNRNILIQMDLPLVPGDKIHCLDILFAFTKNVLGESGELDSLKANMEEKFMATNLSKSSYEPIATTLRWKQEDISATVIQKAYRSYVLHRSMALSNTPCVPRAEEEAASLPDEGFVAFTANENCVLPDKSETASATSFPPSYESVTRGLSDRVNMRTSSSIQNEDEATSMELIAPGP
In words: Inhibition of human Nav1.8 stably expressed in SH-SY-5Y cells (membrane potential dye fluorescence assay). The class given is cell-based. To be noted: SH-SY-5Y hNav1.8 cells; FLIPR membrane potential dye; 10 μM pyrethroid, 250 nM TTX; test concentration range 100 μM-0.05 μM; read-out: hNav1.8 IC50.
Regarding `COCCCOc1ccc(NC(=O)N2CC3CC2CN3C(C)c2ccccc2C)cc1` (stereo not drawn) [Example 27, 5-(1-o-Tolyl-ethyl)-2,5-diaza-bicyclo[2.2.1]heptane-2-carboxylic acid [4-(3-methoxy-propoxy)-phenyl]-amide], the IC50 stood at 8480 nM.

Take `CC(c1ccccc1Cl)N1CC2CC1CN2C(=O)Nc1ccc(Oc2ccc(F)cc2)cc1` (single isomer, unassigned) [Example 73, 5-[1-(2-Chloro-phenyl)-ethyl]-2,5-diaza-bicyclo[2.2.1]heptane-2-carboxylic acid [4-(4-fluoro-phenoxy)-phenyl]-amide]: the IC50 stood at 1130 nM.

Regarding `CC(c1ccccc1Cl)N1CC2CC1CN2C(=O)Nc1ccc(Oc2ccc(Cl)cc2)cc1` (stereo not drawn) [Example 128, 5-[1-(2-Chloro-phenyl)-ethyl]-2,5-diaza-bicyclo[2.2.1]heptane-2-carboxylic acid [4-(4-chloro-phenoxy)-phenyl]-amide], the IC50 is 1420 nM.

On to `CC(c1ccccc1Cl)N1CC2CC1CN2C(=O)c1cc2ccccc2[nH]1` (stereo not drawn) [Example 149, {5-[1-(2-Chloro-phenyl)-ethyl]-2,5-diaza-bicyclo[2.2.1]hept-2-yl}-(1H-indol-2-yl)-methanone], for which the IC50 was 5840 nM.

Take `Cc1cc(F)ccc1C(C)N1CC2CC1CN2C(=O)Nc1ccc(C(=O)c2ccccc2)cc1` (stereo not drawn) [Example 71, 5-[1-(4-Fluoro-2-methyl-phenyl)-ethyl]-2,5-diaza-bicyclo[2.2.1]heptane-2-carboxylic acid (4-benzoyl-phenyl)-amide]: the IC50 worked out at 2360 nM.

In the case of `Cc1ccccc1CC(C)N1CC2CC1CN2C(=O)Nc1ccc(C(F)(F)F)cc1` (stereo not drawn) [Example 59, 5-(1-Methyl-2-o-tolyl-ethyl)-2,5-diaza-bicyclo[2.2.1]heptane-2-carboxylic acid (4-trifluoromethyl-phenyl)-amide], the IC50 was found to be 750 nM.

As for `Cc1ccccc1C(C)N1CC2CC1CN2C(=O)Nc1ccc(OCCn2ccnc2)cc1` (stereo not drawn) [Example 43, 5-(1-o-Tolyl-ethyl)-2,5-diaza-bicyclo[2.2.1]heptane-2-carboxylic acid [4-(2-imidazol-1-yl-ethoxy)-phenyl]-amide], the IC50 was no less than 30000 nM.

As for `CC(c1ccccc1Cl)N1CC2CC1CN2C(=O)N(C)c1ccc(Oc2ccc(F)cc2)cc1` (stereo not drawn) [Example 115, 5-[1-(2-Chloro-phenyl)-ethyl]-2,5-diaza-bicyclo[2.2.1]heptane-2-carboxylic acid [4-(4-fluoro-phenoxy)-phenyl]-methyl-amide], the IC50 amounted to 1980 nM.

In the case of `O=C(Nc1ccc(Oc2ccccc2F)cc1)N1CC2CC1CN2C1Cc2ccccc2C1` (stereo not drawn) [Example 113, 5-Indan-2-yl-2,5-diaza-bicyclo[2.2.1]heptane-2-carboxylic acid [4-(2-fluoro-phenoxy)-phenyl]-amide], the IC50 was 540 nM.

As to `CC(c1ccc(F)cc1)N1CC2CC1CN2C(=O)Nc1cccc(C(F)(F)F)c1` (stereo not drawn) [Example 50, 5-[1-(4-Fluoro-phenyl)-ethyl]-2,5-diaza-bicyclo[2.2.1]heptane-2-carboxylic acid (3-trifluoromethyl-phenyl)-amide], the IC50 was determined as 2620 nM.

Take `CC(c1ccccc1Cl)N1CC2CC1CN2C(=O)Nc1ccc(Oc2ccccc2)cc1` (single isomer, unassigned) [Example 11, 5-[1-(2-Chloro-phenyl)-ethyl]-2,5-diaza-bicyclo[2.2.1]heptane-2-carboxylic acid (4-phenoxy-phenyl)-amide]: the IC50 is 1800 nM.

For `O=C(NCc1ccc(Oc2ccccc2)cc1)N1CC2CC1CN2C1Cc2ccc(F)cc2C1` (stereo not drawn) [Example 145, 5-(5-Fluoro-indan-2-yl)-2,5-diaza-bicyclo[2.2.1]heptane-2-carboxylic acid 4-phenoxy-benzylamide], the IC50 is 1440 nM.

In the case of `Cc1cc(F)ccc1C(C)N1CC2CC1CN2C(=O)Nc1ccc(C(F)(F)F)cc1` (stereo not drawn) [Example 65, 5-[1-(4-Fluoro-2-methyl-phenyl)-ethyl]-2,5-diaza-bicyclo[2.2.1]heptane-2-carboxylic acid (4-trifluoromethyl-phenyl)-amide], the IC50 is 600 nM.

Turning to `CC(c1ccccc1Cl)N1CC2CC1CN2C(=O)Nc1ccc(Oc2ccc(F)cc2)nc1` (stereo not drawn) [Example 182, 5-[1-(2-Chloro-phenyl)-ethyl]-2,5-diaza-bicyclo[2.2.1]heptane-2-carboxylic acid [6-(4-fluoro-phenoxy)-pyridin-3-yl]-amide methanesulfonate salt], the IC50 turned out to be 270 nM.

Take `Cc1ccccc1C(C)N1CC2CC1CN2C(=O)Nc1ccc(Oc2ccccc2)cc1` (stereo not drawn) [Example 30, 5-(1-o-Tolyl-ethyl)-2,5-diaza-bicyclo[2.2.1]heptane-2-carboxylic acid (4-phenoxy-phenyl)-amide]: the concentration for half-maximal inhibition (IC50) came to 320 nM.

For `Cc1ccccc1C(C)N1CC2CC1CN2C(=O)Nc1ccc(Oc2ccccc2)cc1` (stereo not drawn) [Example 4, 5-(1-o-Tolyl-ethyl)-2,5-diaza-bicyclo[2.2.1]heptane-2-carboxylic acid (4-phenoxy-phenyl)-amide], the IC50 amounted to 320 nM.

Consider `CC(c1ccc(Cl)cc1Cl)N1CC2CC1CN2C(=O)Nc1ccc(C(F)(F)F)cc1` (stereo not drawn) [Example 126, 5-[1-(2,4-Dichloro-phenyl)-ethyl]-2,5-diaza-bicyclo[2.2.1]heptane-2-carboxylic acid (4-trifluoromethyl-phenyl)-amide], for which the IC50 worked out at 22900 nM.

Take `CCCCOc1ccc(NC(=O)N2CC3CC2CN3Cc2sccc2C)cc1` (stereo not drawn) [Example 3, 5-(3-Methyl-thiophen-2-ylmethyl)-2,5-diaza-bicyclo[2.2.1]heptane-2-carboxylic acid (4-butoxy-phenyl)-amide]: the IC50 amounted to 1030 nM.

For the compound `Cc1ccccc1C(C)N1CC2CC1CN2C(=O)Nc1ccc(OCCN2CCCC2=O)cc1` (stereo not drawn) [Example 23, 5-(1-o-Tolyl-ethyl)-2,5-diaza-bicyclo[2.2.1]heptane-2-carboxylic acid {4-[2-(2-oxo-pyrrolidin-1-yl)-ethoxy]-phenyl}-amide], the IC50 is no less than 30000 nM.

In the case of `CCCCOc1ccc(NC(=O)N2CC3CC2CN3C(C)c2ccccc2C)cc1` (stereo not drawn) [Example 5, 5-(1-o-Tolyl-ethyl)-2,5-diaza-bicyclo[2.2.1]heptane-2-carboxylic acid (4-butoxy-phenyl)-amide], the 50% inhibitory concentration (IC50) stood at 570 nM.

Consider `CC(c1ccccc1Cl)N1CC2CC1CN2C(=O)c1ccc(Oc2ccc(F)cc2)c(F)c1` (stereo not drawn) [Example 179, {5-[1-(2-Chloro-phenyl)-ethyl]-2,5-diaza-bicyclo[2.2.1]hept-2-yl}-[3-fluoro-4-(4-fluoro-phenoxy)-phenyl]-methanone methanesulfonate salt], for which the IC50 turned out to be 1340 nM.

Still in this assay, the particulars now being: hNav1.8 IC50, SH-SY-5Y hNav1.8 cells; FLIPR membrane potential dye; 10 μM pyrethroid, 250 nM TTX; test concentration range 100 μM-0.05 μM.
Turning to `CC(c1ccccc1Cl)N1CC2CC1CN2C(=O)Cc1ccc(Oc2ccc(F)cc2)cc1` (stereo not drawn) [Example 135, 1-{5-[1-(2-Chloro-phenyl)-ethyl]-2,5-diaza-bicyclo[2.2.1]hept-2-yl}-2-[4-(4-fluoro-phenoxy)-phenyl]-ethanone], inhibition was half-maximal at 940 nM (IC50).

`Cc1ccccc1C(C)N1CC2CC1CN2C(=O)Nc1ccc(Oc2ccc(F)cc2)cc1` (single isomer, unassigned) [Example 74, 5-(1-o-Tolyl-ethyl)-2,5-diaza-bicyclo[2.2.1]heptane-2-carboxylic acid [4-(4-fluoro-phenoxy)-phenyl]-amide] came in with a half-maximal inhibitory concentration (IC50) of 110 nM.

In turn, `O=C(Cc1ccc(Oc2ccc(F)cc2)cc1)N1CC2CC1CN2C1CCc2ccccc2C1` (stereo not drawn) [Example 142, 2-[4-(4-Fluoro-phenoxy)-phenyl]-1-[5-(1,2,3,4-tetrahydro-naphthalen-2-yl)-2,5-diaza-bicyclo[2.2.1]hept-2-yl]-ethanone] yielded an IC50 of 280 nM.
